Data: patent US10098974B2, “Catalytic radiofluorination” (priority 2004, dated 2018)
Like-named read-outs stand apart in the source and are kept apart here.

Assays:
[1] = rat, microPET
Protocol: (§1) Rats (250-300 grams) or rabbits (3-4 Kg) were anesthetized and placed ventrally to the imaging position and 0.4-1 mCi of the FTPP was injected into the vain. Three-dimensional dynamic data were acquired in list mode for one hour starting from the injection of the radiolabeled ligand.
(§2) PET imaging was conducted with a microPET, P4 system (Concorde Microsystems Inc, Knoxville, Tenn.). The length of the field of view is 8 cm and the diameter is 22 cm allowing entire upper body imaging of the rat or rabbit during a single acquisition. The imaging parameters of this system are in-plane and axial resolution of 1.2 mm full width of photopeak measured at half maximal count.

[2] = rabbit
Protocol: as §1, §2
The rabbit was anesthetized, placed in the microPET camera (body marks in the camera positioning were made) and sequential images were obtained for ten minutes following the administration of 3 mCi of N-13-ammonia (FIG. 10). One hour later, FTPP was injected followed by 60 minute sequential imaging of the rabbit (FIG. 11). Image corrections for the remaining N-13-ammonia activity were made with an appropriate program. One day later, the same rabbit underwent an LAD occlusion protocol, positioned in the same camera field of view and the above dual agent imaging sequence was repeated.

[3] = Biodistribution of FTTP in rats after intravenous administration
[4] = tested on: MCF-7; settings: MCF-7, period of 240 minutes
[5] = tested on: C-6BAG glioma; settings: period of 240 minutes
[6] = tested on: C6 glioma cell line; settings: from maximum accumulation at 30 minutes
[7] = tested on: CV-1 normal cell line
[8] = 5 min post administration (Table 1)
[9] = 30 min post administration (Table 1)
[10] = 60 min post administration (Table 1)

For `O=[N+]([O-])[O-].[18F]c1ccc([P+](c2ccccc2)(c2ccccc2)c2ccccc2)cc1` [FTTP, [F-18]-(4-fluorophenyl)triphenylphosphonium nitrate], the “time after injection at which heart activity reaches a plateau” value [1] was 1 min, the myocardial retention ([2]; late images at 60 min) was “high myocardial retention” and the “time after injection at which heart activity reaches a plateau” value ([2]; microPET) was 1 min. The Heart/Blood ratio [3, 8] was 11 % ID/g, the Heart/Liver ratio [3, 8] was 5 % ID/g and the Heart/Lung ratio [3, 8] was 2 % ID/g. It also gave a Heart/Blood ratio [3, 9] of 75 % ID/g, a Heart/Liver ratio [3, 9] of 8 % ID/g and a Heart/Lung ratio [3, 9] of 5 % ID/g. It also gave a Heart/Blood ratio [3, 10] of 70 % ID/g, a Heart/Liver ratio [3, 10] of 8 % ID/g and a Heart/Lung ratio [3, 10] of 4 % ID/g. For the same compound, the “Bone accumulation (indication of defluorination)” value ([3]; iv, 5 min) was 0.31 ID/g, the Heart-to-lung ratio ([3]; iv, 5 min) was 2.4 and the Lung activity ([3]; iv, 5 min) was 0.69 ID/g. For the same compound, the “accumulation in heart relative to blood” value ([3]; iv, 5 min) was 11 fold, the “accumulation in heart relative to liver” value ([3]; iv, 5 min) was 5 fold and the “accumulation in the heart” value ([3]; iv, 5 min) was 1.64 ID/g. It also gave a liver uptake ([3]; iv, 5 min) of 0.18 ID/g, a Heart-to-lung ratio ([3]; iv, 30 min) of 5.0 and a Lung activity ([3]; iv, 30 min) of 0.30 ID/g. The liver uptake ([3]; iv, 30 min) was 0.17 ID/g, the “uptake of radioactivity in the heart” value ([3]; iv, 30 min) was 1.5 ID/g and the “Bone accumulation (indication of defluorination)” value ([3]; iv, 60 min) was 0.39 ID/g. It also gave a Heart-to-lung ratio ([3]; iv, 60 min) of 3.2, a Lung activity ([3]; iv, 60 min) of 0.38 ID/g and a liver uptake ([3]; iv, 60 min) of 0.17 ID/g.

For “[I-125]-p-iodophenyltriphenylphosponium nitrate [TPPI]”, the cell retention [4] was “High retention”, the cell retention [5] was “High retention” and the cell retention [6] was “partial washout”. For the same compound, the cell uptake [7] was “no significant uptake”.
